Laboratory results taken from ChEMBL document CHEMBL3244086, “A new class of antimalarial drugs: derivatives of benzothiopyrans” (J Med Chem, 1978).
The source made the active and inactive calls. The rule behind the calls is not given here.

Columns and labels:
Plasmodium berghei [1] = experiment: Antimalarial activity against Plasmodium berghei infected in mouse assessed as host survival time at 320 mg/kg, sc treated after 3 days of infection (reference value: 6.2 +/- 0.5 days); type: functional
Plasmodium gallinaceum [2] = experiment: Antimalarial activity against Plasmodium gallinaceum B infected in chick assessed as host survival time at 320 mg/kg, sc treated immediately after infection; type: functional
Plasmodium gallinaceum [3] = experiment: Antimalarial activity against Plasmodium gallinaceum B infected in chick assessed as host survival time at 160 mg/kg, sc treated immediately after infection; type: functional
Plasmodium berghei [4] = experiment: Antimalarial activity against Plasmodium berghei infected in mouse assessed as host survival time at 640 mg/kg, sc treated after 3 days of infection (reference value: 6.2 +/- 0.5 days); type: functional
Plasmodium berghei [5] = experiment: Antimalarial activity against Plasmodium berghei infected in mouse assessed as host cured at 320 to 640 mg/kg, sc treated after 3 days of infection; type: functional, organism-based
Plasmodium berghei [6] = experiment: Antimalarial activity against Plasmodium berghei infected in mouse assessed as host survival time at 160 mg/kg, sc treated after 3 days of infection (reference value: 6.2 +/- 0.5 days); type: functional; details: route subcutaneous
Plasmodium gallinaceum [7] = experiment: Antimalarial activity against Plasmodium gallinaceum B infected in chick assessed as host survival time at 120 mg/kg, sc treated immediately after infection; type: functional, organism-based; parameters: dose 120 mg/kg
Mus musculus = experiment: Toxicity in mouse at 640 mg/kg, sc; type: organism-based; parameters: dose 640 mg/kg, route subcutaneous; details: in vivo
Plasmodium gallinaceum [8] = experiment: Antimalarial activity against Plasmodium gallinaceum B infected in chick assessed as host survival time at 80 mg/kg, sc treated immediately after infection; type: functional, organism-based; parameters: dose 80 mg/kg
Gallus gallus [9] = experiment: Toxicity in chick at 160 mg/kg, sc; type: organism-based; parameters: dose 160 mg/kg, route subcutaneous; details: chicken, in vivo
Gallus gallus [10] = experiment: Toxicity in chick at 320 mg/kg, sc; type: organism-based; parameters: dose 320 mg/kg, route subcutaneous; details: chicken, in vivo
Gallus gallus [11] = experiment: Toxicity in chick at 120 mg/kg, sc; type: organism-based; parameters: dose 120 mg/kg, route subcutaneous; details: chicken, in vivo

Compound: CN1CCCC1CC/N=c1\cc(-c2ccccc2)sc2ccc(Cl)cc12 (centres undefined)
- MST (Plasmodium berghei [1]; route subcutaneous): 7 days

Compound: Clc1ccc2sc(-c3ccccc3)c/c(=N\c3cccnc3)c2c1
- MST (Plasmodium berghei [1]): inactive
- MST (Plasmodium gallinaceum [2]): inactive

Compound: CN1CCN(CCC/N=c2\cc(-c3ccc(Cl)cc3)sc3ccccc23)CC1
- MST (Plasmodium berghei [1]; route subcutaneous): 6.9 days

Compound: CCN(CC)CCCC(C)/N=c1\cc(-c2ccc(Cl)c(Cl)c2)sc2ccc(Br)cc12 (centres undefined)
- MST (Plasmodium berghei [1]): inactive
- MST (Plasmodium gallinaceum [3]): inactive

Compound: OCCN1CCN(CC/N=c2\cc(-c3ccc(Cl)cc3)sc3ccc(Cl)cc23)CC1
- MST (Plasmodium berghei [4]): inactive
- MST (Plasmodium gallinaceum [2]): inactive

Compound: Cl.Clc1ccc(-c2c/c(=N\CCCN3CCCCC3)c3cc(Cl)ccc3s2)cc1
- MST (Plasmodium berghei [4]): inactive
- MST (Plasmodium gallinaceum [2]; route subcutaneous): 5.2 days

Compound: CN(C)CCC/N=c1\cc(-c2ccccc2)sc2ccc(Cl)cc12.Cl.O
- MST (Plasmodium berghei [4]; route subcutaneous): 13.6 days

Compound: Clc1ccc(-c2c/c(=N\CCCN3CCOCC3)c3cc(Br)ccc3s2)cc1Cl
- MST (Plasmodium berghei [4]; route subcutaneous): 10.5 days
- MST (Plasmodium gallinaceum [2]): inactive

Compound: CN1CCN(CCC/N=c2\cc(-c3ccc(Cl)cc3)sc3ccc(Cl)cc23)CC1
- Activity (Plasmodium berghei [5]): Active
- MST (Plasmodium berghei [1]; route subcutaneous): 11.2 days
- MST (Plasmodium berghei [6]): 6.2 days
- MST (Plasmodium gallinaceum [2]; route subcutaneous): 3.4 days

Compound: CN(C)CCC/N=c1\cc(-c2ccccc2)sc2ccc(Br)cc12.Cl
- MST (Plasmodium berghei [1]; route subcutaneous): 12.6 days

Compound: CCN(CC)CCCC(C)/N=c1\cc(-c2ccc(Cl)c(Cl)c2)sc2ccc(OC)cc12 (centres undefined)
- MST (Plasmodium gallinaceum [7]): inactive

Compound: CN(C)CCC/N=c1\cc(-c2ccc(Cl)cc2)sc2ccccc12.Cl
- Activity (Plasmodium berghei [5]): Active
- Activity (Mus musculus): Toxic

Compound: CCN(CC)CCCC(C)/N=c1\cc(-c2ccc(Cl)c(Cl)c2)sc2ccc(F)cc12 (centres undefined)
- MST (Plasmodium berghei [4]): inactive
- MST (Plasmodium gallinaceum [7]): inactive

Compound: CCN(CC)CCCC(C)/N=c1\cc(-c2ccc(Cl)cc2)sc2ccccc12.Cl (centres undefined)
- MST (Plasmodium berghei [1]): inactive
- MST (Plasmodium gallinaceum [8]): inactive
- Activity (Mus musculus): Toxic
- Activity (Gallus gallus [9]): Toxic

Compound: Cl.OCCN1CCN(CCCC/N=c2\cc(-c3ccc(Cl)cc3)sc3ccc(Cl)cc23)CC1
- MST (Plasmodium berghei [4]; route subcutaneous): 7.9 days
- MST (Plasmodium berghei [1]; route subcutaneous): 7.4 days
- Activity (Mus musculus): Toxic
- Activity (Gallus gallus [10]): Toxic

Compound: N=C(N)N/N=c1\cc(-c2ccccc2)sc2ccc(Cl)cc12
- MST (Plasmodium berghei [4]; route subcutaneous): 6.2 days

Compound: CN(C)CC/N=c1\cc(-c2ccccc2)sc2ccc(Cl)cc12
- MST (Plasmodium berghei [4]): inactive

Compound: CCN(CC)CCCC(C)/N=c1\cc(-c2ccccc2)sc2ccc(Br)cc12.Cl (centres undefined)
- Activity (Plasmodium berghei [5]): Active
- MST (Plasmodium berghei [6]): 9.5 days
- MST (Plasmodium gallinaceum [3]): inactive

Compound: CN1CCCC1CC/N=c1\cc(-c2ccc(Cl)c(Cl)c2)sc2ccc(F)cc12 (centres undefined)
- MST (Plasmodium berghei [4]): inactive
- MST (Plasmodium gallinaceum [2]): inactive

Compound: CN1CCN(CCC/N=c2\cc(-c3ccccc3)sc3ccc(Cl)cc23)CC1
- MST (Plasmodium berghei [1]; route subcutaneous): 7.3 days
- MST (Plasmodium gallinaceum [2]): inactive

Compound: CN1CCN(CCC/N=c2\cc(-c3ccc(Cl)cc3)sc3ccc(Br)cc23)CC1
- MST (Plasmodium berghei [1]): inactive
- MST (Plasmodium gallinaceum [3]): inactive

Compound: Clc1ccc2sc(-c3ccccc3)c/c(=N\C34CC5CC(CC(C5)C3)C4)c2c1
- MST (Plasmodium berghei [4]): inactive
- MST (Plasmodium gallinaceum [2]): inactive

Compound: CCN(CC)CCCC(C)/N=c1\cc(-c2ccccc2)sc2ccc(Cl)cc12.Cl (centres undefined)
- Activity (Plasmodium berghei [5]): Active
- MST (Plasmodium berghei [1]; route subcutaneous): 10.6 days
- MST (Plasmodium berghei [6]): 8 days
- Activity (Gallus gallus [10]): Toxic

Compound: CCN(CC)CCCC(C)/N=c1\cc(C23CC4CC(CC(C4)C2)C3)sc2ccc(Cl)cc12.Cl (centres undefined)
- MST (Plasmodium berghei [4]): inactive
- MST (Plasmodium gallinaceum [3]): inactive
- Activity (Gallus gallus [9]): Toxic

Compound: O=C(NCCC/N=c1\cc(-c2ccccc2)sc2ccc(Cl)cc12)OCc1ccccc1
- MST (Plasmodium berghei [4]): inactive

Compound: Cl.Clc1ccc2sc(-c3ccccc3)c/c(=N\CCCN3CCOCC3)c2c1
- MST (Plasmodium berghei [4]; route subcutaneous): 6.8 days

Compound: CN(C)CCC/N=c1\cc(-c2ccc(Cl)cc2)sc2ccc(Cl)cc12
- Activity (Plasmodium berghei [5]): Active
- MST (Plasmodium berghei [1]; route subcutaneous): 9.8 days
- MST (Plasmodium berghei [6]): 7 days
- MST (Plasmodium gallinaceum [2]; route subcutaneous): 4.4 days
- MST (Plasmodium gallinaceum [3]; route subcutaneous): 3.4 days

Compound: Clc1ccc2sc(-c3ccccc3)c/c(=N\CCCCC3CCCCC3)c2c1
- MST (Plasmodium berghei [4]): inactive
- MST (Plasmodium gallinaceum [2]): inactive

Compound: CCN(CC)CCCC(C)/N=c1\cc(-c2ccc(F)cc2)sc2ccc(F)cc12.Cl (centres undefined)
- MST (Plasmodium berghei [4]): inactive
- Activity (Gallus gallus [11]): Toxic

Compound: CCN(CC)CCCC(C)/N=c1\cc(-c2ccc(Cl)cc2)sc2ccc(Cl)cc12.Cl (centres undefined)
- MST (Plasmodium berghei [4]): inactive
- MST (Plasmodium gallinaceum [2]; route subcutaneous): 4.7 days

Compound: Clc1ccc(-c2c/c(=N\Cc3ccccn3)c3cc(Cl)ccc3s2)cc1
- MST (Plasmodium berghei [1]): inactive
- MST (Plasmodium gallinaceum [2]): inactive

Compound: Clc1ccc2sc(-c3ccccc3)c/c(=N\CCN3CCCC3)c2c1
- MST (Plasmodium berghei [4]): inactive

Compound: Clc1ccc2sc(-c3ccccc3)c/c(=N\C3CN4CCC3CC4)c2c1 (centres undefined)
- MST (Plasmodium berghei [4]): inactive
- MST (Plasmodium gallinaceum [2]): inactive

Compound: CCN(CC)CCCC(C)/N=c1\cc(-c2ccc(F)cc2)sc2ccc(Br)cc12.Cl (centres undefined)
- MST (Plasmodium berghei [4]; route subcutaneous): 10.1 days
- MST (Plasmodium berghei [1]; route subcutaneous): 6.9 days
- MST (Plasmodium gallinaceum [3]): inactive
- Activity (Gallus gallus [10]): Toxic

Compound: CCN(CC)CCCC(C)/N=c1\cc(-c2ccc(Cl)cc2)sc2ccc(Br)cc12.Cl (centres undefined)
- MST (Plasmodium berghei [1]): inactive
- MST (Plasmodium gallinaceum [3]; route subcutaneous): 5 days

Compound: NCCC/N=c1\cc(-c2ccccc2)sc2ccc(Cl)cc12
- MST (Plasmodium berghei [4]): inactive

Compound: CCN(CC)CCC/N=c1\cc(-c2ccccc2)sc2ccc(Cl)cc12.NS(=O)(=O)O
- MST (Plasmodium berghei [4]; route subcutaneous): 10.3 days
- MST (Plasmodium berghei [1]; route subcutaneous): 9.1 days
- MST (Plasmodium gallinaceum [2]): inactive

Compound: OCCN1CCN(CCCC/N=c2\cc(C34CC5CC(CC(C5)C3)C4)sc3ccc(Br)cc23)CC1
- MST (Plasmodium berghei [1]): inactive
- MST (Plasmodium gallinaceum [7]): inactive
- Activity (Gallus gallus [11]): Toxic

Compound: Clc1ccc(-c2c/c(=N\CCCCC3CCCCC3)c3cc(Cl)ccc3s2)cc1
- MST (Plasmodium berghei [4]): inactive
- MST (Plasmodium gallinaceum [2]): inactive
